Assays:
FGF1.A promoter = FGF1.A promoter luciferase reporter; format: cell-based, murine; conditions: sJ1 NIH 3T3 cell transfectants versus insert-less vector
Method: In order to confirm the sJ1-dependent function of the FGF1.A promoter, the corresponding 1.8 Kbp region (Madiai et al., 1999, J. Biol. Chem. 274:11937-11944) was cloned into a promoter-less firefly luciferase reporter vector and FGF1.A-driven firefly luciferase activity was evaluated in both insert-less vector and sJ1 NIH 3T3 cell transfectants.

FGF1 transcript = test: Nuclear run-on analysis of FGF1 transcription; format: cell-based, murine
Method: Approximately either 1×10^7 Swiss or NIH 3T3 cells were harvested and washed using ice-cold 50 mM sodium phosphate buffer, pH 7.0 containing 15 mM NaCl. Cell pellets were lysed in 4 ml of ice-cold 10 mM Tris-HCl, pH 7.5, containing 3 mM CaCl2, 3 mM MgCl2, 10 mM NaCl, and 0.5 % NP-40. The nuclear pellet was resuspended in glycerol storage buffer (50 mM Tris-HCl, pH 8.3 containing 40% glycerol, 5 mM MgCl2 and 0.1 mM EDTA), the nuclei were snap frozen, and stored in liquid nitrogen. For run-on transcription, 200 μl aliquots of the frozen nuclei were added to 200 μl of reaction buffer (10 mM Tris-HCl, pH 8.3 containing 5 mM MgCl2, 300 mM KCl, 5 mM DTT, 1 mM each of ATP, CTP, and GTP, 40 units of RNase inhibitor and 100 μCi of [^32P]UTP (800 Ci/mmol; Amersham), and incubated at 30° C. for 30 minutes. The mixture was treated with 100 units of RNase-free DNase I for 30 minutes at 30° C. and then incubated with 400 μl of 20 mM Tris-HCl, pH 7.5, containing 2% SDS, 10 mM EDTA, […] proteinase K for 30 minutes at 42° C. Following phenol/CHCl3 extraction, the labelled transcripts were precipitated with isopropanol and dissolved in 50 μl of 10 mM TES, pH 7.5, containing 10 mM EDTA and 0.2% SDS. Linearized plasmid constructs (0.4 μg/dot) containing either the fgf1 or gapdh cDNA were alkali denatured and immobilized onto a Hybond-N^+ membrane (Amersham). Hybridization was performed in 1 ml of ULTRA Hyb (Ambion), with 5×10^6 cpm of radiolabeled RNA and yeast RNA (10 μg/ml) for 18 hours with shaking at 50° C. Membranes were washed twice with washing buffer (2×SSC containing 0.1% SDS) at 50° C. and analyzed using a phosphoimager (Molecular Dynamics).

human Jagged1 [1] = target: T1, human Jagged1 (Homo sapiens, UniProt P78504); test: Thrombin cleavage of in vitro translated Jagged1 and Edman microsequencing; format: biochemical; conditions: Edman chemistry of 95 kDa fragment
T1 construct: the full-length human Jagged1 transcript was in vitro translated; made in house; host or cells: cell-free: T7-coupled reticulocyte lysate system (Promega)
T1 sequence (P78504 34-1218 A1171G): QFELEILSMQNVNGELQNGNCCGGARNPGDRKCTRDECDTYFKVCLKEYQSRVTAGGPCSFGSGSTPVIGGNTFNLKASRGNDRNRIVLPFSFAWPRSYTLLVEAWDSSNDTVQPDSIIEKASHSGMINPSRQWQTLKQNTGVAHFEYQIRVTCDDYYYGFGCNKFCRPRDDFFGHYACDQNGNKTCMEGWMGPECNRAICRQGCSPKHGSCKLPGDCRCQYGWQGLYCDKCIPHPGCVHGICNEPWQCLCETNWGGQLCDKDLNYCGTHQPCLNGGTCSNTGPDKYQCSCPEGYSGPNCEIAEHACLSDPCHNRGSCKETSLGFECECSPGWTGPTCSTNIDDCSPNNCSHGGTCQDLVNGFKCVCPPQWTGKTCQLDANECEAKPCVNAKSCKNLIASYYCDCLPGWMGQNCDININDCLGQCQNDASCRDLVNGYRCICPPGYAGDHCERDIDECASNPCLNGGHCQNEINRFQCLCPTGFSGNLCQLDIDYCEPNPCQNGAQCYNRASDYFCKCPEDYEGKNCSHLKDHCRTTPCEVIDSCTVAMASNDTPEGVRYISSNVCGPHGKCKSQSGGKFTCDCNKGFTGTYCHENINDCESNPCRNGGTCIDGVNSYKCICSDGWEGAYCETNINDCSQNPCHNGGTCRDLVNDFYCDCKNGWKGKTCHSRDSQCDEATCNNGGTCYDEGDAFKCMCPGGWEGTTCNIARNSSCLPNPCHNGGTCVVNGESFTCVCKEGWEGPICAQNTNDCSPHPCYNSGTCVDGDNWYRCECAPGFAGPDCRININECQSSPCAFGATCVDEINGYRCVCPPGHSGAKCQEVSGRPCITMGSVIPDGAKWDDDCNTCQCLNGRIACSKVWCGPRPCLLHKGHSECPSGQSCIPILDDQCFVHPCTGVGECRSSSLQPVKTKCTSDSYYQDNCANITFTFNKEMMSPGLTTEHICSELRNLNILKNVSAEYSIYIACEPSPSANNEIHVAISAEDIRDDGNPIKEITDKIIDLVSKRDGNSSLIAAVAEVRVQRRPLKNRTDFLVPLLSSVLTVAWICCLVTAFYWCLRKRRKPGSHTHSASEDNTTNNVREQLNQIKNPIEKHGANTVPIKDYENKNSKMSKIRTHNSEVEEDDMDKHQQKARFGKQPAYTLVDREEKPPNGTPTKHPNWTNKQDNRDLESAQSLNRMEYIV
Method: (§1) A plasmid containing human Jagged1 (Zinrin et al., 1996, J. Biol. Chem. 271:32499-32502) was in vitro transcribed and in vitro translated in the presence of a (^35S)-Met/Cys protein-labeling mixture (Amersham) using the T7-coupled reticulocyte lysate system according to the manufacturer's instructions (Promega) in a total volume of 50 μl. After 60 minutes incubation at 30° C., 0.05% DTT was added, half of the reaction mixture incubated with 10 μg α-thrombin for 15 minutes at 37° C., and the reaction stopped by boiling in the presence of SDS-PAGE sample buffer. The samples were resolved by 12% SDS-PAGE, transferred to a nitrocellulose membrane, and analyzed by autoradiography. The bands corresponding to the thrombin cleavage products were excised and subjected to automated Edman microsequencing (Applied Bio Sciences). The products of each cycle were collected prior to resolution by HPLC, added to liquid scintillation fluid (Beckman) and the (^35S) samples quantitated by liquid scintillation spectroscopy (Beckman).

human Jagged1 [2] = target: T2, human Jagged1 (Homo sapiens, UniProt P78504, A1171G); test: as above; format: biochemical; conditions: α-thrombin, 15 minutes at 37° C.
T2 construct: the full-length human Jagged1 transcript was in vitro translated; made in house; host or cells: cell-free: T7-coupled reticulocyte lysate system (Promega)
T2 sequence (P78504 34-1218 A1171G): as above
Method: as §1

PAR1 null cells = test: FGF1 release from PAR1 null cells; format: cell-based, mouse; conditions: 10 μg/ml α-thrombin, 5 and 60 minutes
Method: Murine NIH 3T3 (ATCC), Swiss 3T3 (ATCC), sJ1 NIH 3T3 cell transfectants were all disclosed elsewhere herein (e.g., Example 1), FGF1 NIH 3T3 transfectants (Jackson et al., 1992, Proc. Natl. Acad. Sci. U.S.A. 89:10691-10695) and PAR1 null mouse embryonic fibroblasts (a gift from Dr. S. Coughlin) were grown in Dulbecco's modified Eagle's medium (DMEM; Life Technologies) supplemented with 10% bovine calf serum (BCS; Hyclone) and 1× antibiotic/antimycotic (Life Technologies). All stable NIH 3T3 cell transfectant cultures were further supplemented with 0.4 g/L Geneticin (GIBCO). […]
FGF1R136K NIH 3T3 cell transfectants or adenovirally-transduced NIH 3T3 cells were washed with DMEM containing 5 units/ml of heparin (Sigma) and stimulated with either 10 μg/ml α-thrombin (a gift from Dr. J. Fenton) or 5 μM TRAP (Sigma) at 37° C. for different periods of time. […] Cell viability was assessed by measuring lactate dehydrogenase activity in the conditioned medium after filtration as disclosed previously elsewhere herein (published as Mandinova et al., 2003, J. Cell Sci. 116:2687-2696), and total cell lysates were obtained and processed for immunoblot analysis as described (Landriscina et al., 2001, J. Biol. Chem. 276:22544-22552). […]

Substance | FGF1.A-driven promoter activity (FGF1.A promoter) | induction of FGF1 transcript (FGF1 transcript; 10 μg/ml α-thrombin or 5 μM TRAP) | time at which FGF1 mRNA reached a plateau (FGF1 transcript; NIH 3T3 and Swiss 3T3 cells) | time at which FGF1 mRNA was initially detected (FGF1 transcript; NIH 3T3 and Swiss 3T3 cells) | Jagged1 cleavage site (human Jagged1 [1]) | cleavage of 134 kDa Jagged1 translation product (human Jagged1 [2]) | export of FGF1R136K from PAR1 null cells (PAR1 null cells)
sJ1: Soluble Jagged1, amino acid residues about 1 to 1067 (SEQ ID NO:3) of full-length human Jagged1 | significant increase in the FGF1.A-driven promoter activity | – | – | – | – | – | –
thrombin | – | able to induce the expression of the FGF1 transcript | 2 h | 15 min | between residues R348 and G349 | cleavage of the full-length Jagged1 protein into 39 kDa and 95 kDa fragments | unable to induce the export of the FGF1R136K mutant

— US20060084599A1, “Compositions, methods and kits relating to notch signaling” (Maine Medical Center, priority 2003, published 2006)
